Test results taken from patent US7109296B2, “Human 5-HT3-C protein” (Ortho-McNeil Pharmaceutical, Inc., priority 1999, dated 2006).

What was measured:
Type in all cases: cell-based
5-HT3-B and 5-HT3-C = target: T1, 5-HT3-B and 5-HT3-C (Homo sapiens, UniProt O95264+Q8WXA8); assay: Two-electrode voltage clamp, oocytes co-injected with 5-HT3-B and 5-HT3-C; conditions: 10 μM; 5-HT3-B 3.3 ng, 5-HT3-C 3.35 ng/oocyte
T1 construct: Characterization of the Function of Protein Encoded by p5HT3CR in Xenopus oocvtes; expressed in transfected cells; host or cells: Xenopus laevis oocytes co-injected with cRNAs
T1 sequence (O95264 22-441): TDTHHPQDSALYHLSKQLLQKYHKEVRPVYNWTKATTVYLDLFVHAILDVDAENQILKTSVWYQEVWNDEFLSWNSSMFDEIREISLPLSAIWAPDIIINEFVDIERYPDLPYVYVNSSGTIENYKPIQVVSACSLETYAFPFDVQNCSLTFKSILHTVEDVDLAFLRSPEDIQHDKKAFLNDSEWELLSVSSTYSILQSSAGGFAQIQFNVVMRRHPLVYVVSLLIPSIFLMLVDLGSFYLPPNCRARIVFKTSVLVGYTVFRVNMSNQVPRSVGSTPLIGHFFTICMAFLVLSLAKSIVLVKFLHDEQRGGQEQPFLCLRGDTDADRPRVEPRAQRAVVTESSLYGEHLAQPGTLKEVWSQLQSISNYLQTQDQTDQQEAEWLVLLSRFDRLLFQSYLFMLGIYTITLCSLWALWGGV
T1 sequence (Q8WXA8 28-447): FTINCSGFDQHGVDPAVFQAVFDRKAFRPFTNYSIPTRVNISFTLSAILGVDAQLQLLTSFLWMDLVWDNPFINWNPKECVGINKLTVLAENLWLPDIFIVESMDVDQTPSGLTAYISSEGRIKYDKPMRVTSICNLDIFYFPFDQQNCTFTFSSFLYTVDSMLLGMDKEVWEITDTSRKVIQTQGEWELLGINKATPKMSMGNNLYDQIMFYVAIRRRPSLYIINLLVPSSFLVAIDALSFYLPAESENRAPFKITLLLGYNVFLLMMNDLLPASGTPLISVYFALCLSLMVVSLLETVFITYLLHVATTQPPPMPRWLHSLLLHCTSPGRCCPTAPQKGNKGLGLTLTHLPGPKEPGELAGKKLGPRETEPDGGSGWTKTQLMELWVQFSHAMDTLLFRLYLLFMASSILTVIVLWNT
Procedure: (§1) Characterization of the Function of Protein Encoded by p5HT3CR in Xenopus oocvtes Xenopus laevis oocytes were prepared and injected using standard methods previously described and known in the art (Fraser et al., 1993). Ovarian lobes from adult female Xenopus laevis (Nasco, Fort Atkinson, Wis.) were teased apart, rinsed several times in nominally Ca-free saline containing (in mM): NaCl 82.5, KCl 2.5, MgCl2 1, HEPES 5, adjusted to pH 7.0 with NaOH(OR-2), and gently shaken in OR-2 containing 0.2% collagenase Type 1 (ICN Biomedicals, Aurora, Ohio) for 2–5 hours. When approximately 50% of the follicular layers were removed, Stage V and VI oocytes were selected and rinsed in media consisting of 75% OR-2 and 25% ND-96. The ND-96 contained (in mM): NaCl 100, KCl 2, MgCl2 1, CaCl2 1.8, HEPES 5, Na pyruvate 2.5, gentamicin (50 ug/ml), adjusted to pH 7.0 with NaOH. […] For in vitro transcription, pGEM HE (Liman et al., 1992) containing human 5-HT3-A (Genbank D49394) or 5-HT3-C cDNA was linearized with NheI and transcribed with T7 RNA polymerase (Stratagene) in the presence of the cap analog m7G(5′)ppp(5′)G. The synthesized cRNA was purified with a Sephadex G-50 spin column. […] Control oocytes were injected with 50 nl of water. Oocytes were incubated for 2–14 days in ND-96 before analysis for expression of the human 5-HT3-C. Incubations and collagenase digestion were carried out at room temperature. Injected oocytes were maintained in 48 well cell culture clusters (Costar, Cambridge, Mass.) at 18° C. Whole cell agonist-induced currents were measured 1–14 days after injection with a conventional two-electrode voltage clamp (GeneClamp500, Axon Instruments, Foster City, Calif.) using standard methods previously described and known in the art (Dascal, 1987). The microelectrodes were filled with 3 M KCl, which had resistances of 1 and 2 MΩ. Cells were continuously perfused with ND96 at 10 ml/min at room temperature unless indicated. Membrane voltage was clamped at −70 mV unless indicated.

[1] = target: T2, nicotinic ACh α3β4 receptors (Homo sapiens, UniProt P30926+P32297); assay: Two-electrode voltage clamp, oocytes expressing nicotinic ACh α3β4 receptors
T2 construct: expressed in transfected cells; host or cells: Xenopus laevis oocytes injected with cRNA

[2] = target: T3, 5-HT3-C together with nicotinic ACh receptor a6 subunit (Homo sapiens, UniProt Q15825+Q8WXA8); assay: Two-electrode voltage clamp, oocytes injected with 5-HT3-C together with nicotinic ACh receptor α6 subunit; conditions: 10 μM; eight days after injection; 5-HT3-C 0.67 ng, a6 1 ng/oocyte
T3 construct: Characterization of the Function of Protein Encoded by p5HT3CR in Xenopus oocvtes; expressed in transfected cells; host or cells: Xenopus laevis oocytes injected with cRNA
Procedure: Characterization of the Function of Protein Encoded by p5HT3CR in Xenopus oocvtes Xenopus laevis oocytes were prepared and injected using standard methods previously described and known in the art (Fraser et al., 1993). Ovarian lobes from adult female Xenopus laevis (Nasco, Fort Atkinson, Wis.) were teased apart, rinsed several times in nominally Ca-free saline containing (in mM): NaCl 82.5, KCl 2.5, MgCl2 1, HEPES 5, adjusted to pH 7.0 with NaOH(OR-2), and gently shaken in OR-2 containing 0.2% collagenase Type 1 (ICN Biomedicals, Aurora, Ohio) for 2–5 hours. When approximately 50% of the follicular layers were removed, Stage V and VI oocytes were selected and rinsed in media consisting of 75% OR-2 and 25% ND-96. The ND-96 contained (in mM): NaCl 100, KCl 2, MgCl2 1, CaCl2 1.8, HEPES 5, Na pyruvate 2.5, gentamicin (50 ug/ml), adjusted to pH 7.0 with NaOH. […] For in vitro transcription, pGEM HE (Liman et al., 1992) containing human 5-HT3-A (Genbank D49394) or 5-HT3-C cDNA was linearized with NheI and transcribed with T7 RNA polymerase (Stratagene) in the presence of the cap analog m7G(5′)ppp(5′)G. The synthesized cRNA was purified with a Sephadex G-50 spin column. Oocytes were injected with 50 nl of the human serotonin 5-HT3-A receptor with or without the 5-HT3-C RNA (0.02 and 0.002–0.2 ng each) or other channel or receptor subunit. Control oocytes were injected with 50 nl of water. Oocytes were incubated for 2–14 days in ND-96 before analysis for expression of the human 5-HT3-C. Incubations and collagenase digestion were carried out at room temperature. Injected oocytes were maintained in 48 well cell culture clusters (Costar, Cambridge, Mass.) at 18° C. Whole cell agonist-induced currents were measured 1–14 days after injection with a conventional two-electrode voltage clamp (GeneClamp500, Axon Instruments, Foster City, Calif.) using standard methods previously described and known in the art (Dascal, 1987). The microelectrodes were filled with 3 M KCl, which had resistances of 1 and 2 MΩ. […]

[3] = target: T4, α3β4 receptors together with 5-HT3-C (Homo sapiens, UniProt P30926+P32297); assay: Two-electrode voltage clamp, oocytes expressing nicotinic ACh α3β4 receptors together with 5-HT3-C
T4 construct: expressed in transfected cells; host or cells: Xenopus laevis oocytes co-injected with cRNAs

[4] = target: T5, long form of human 5-HT3-A together with 5-HT3-C (Homo sapiens, UniProt P46098+Q8WXA8); assay: Two-electrode voltage clamp, oocytes co-injected with long form of human 5-HT3-A and 5-HT3-C; conditions: 100 μM; n=2
T5 construct: Characterization of the Function of Protein Encoded by p5HT3CR in Xenopus oocvtes; expressed in transfected cells; host or cells: Xenopus laevis oocytes co-injected with cRNAs
T5 sequence (P46098 24-510 isoform P46098-2): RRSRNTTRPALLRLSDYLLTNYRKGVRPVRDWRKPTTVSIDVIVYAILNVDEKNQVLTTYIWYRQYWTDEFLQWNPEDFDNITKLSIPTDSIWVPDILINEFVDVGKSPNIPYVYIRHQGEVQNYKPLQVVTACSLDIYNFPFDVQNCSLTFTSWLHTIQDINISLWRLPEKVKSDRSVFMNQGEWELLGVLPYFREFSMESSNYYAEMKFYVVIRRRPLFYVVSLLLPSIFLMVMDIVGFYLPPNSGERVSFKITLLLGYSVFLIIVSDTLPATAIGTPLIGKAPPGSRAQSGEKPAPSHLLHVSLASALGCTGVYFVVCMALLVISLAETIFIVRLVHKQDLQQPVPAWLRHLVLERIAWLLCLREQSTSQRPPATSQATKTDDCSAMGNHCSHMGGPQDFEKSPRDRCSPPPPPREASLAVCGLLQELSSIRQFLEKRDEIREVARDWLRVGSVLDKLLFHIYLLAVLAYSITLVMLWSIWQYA
T5 sequence (Q8WXA8 28-447): T1 sequence (Q8WXA8 28-447)
Procedure: Characterization of the Function of Protein Encoded by p5HT3CR in Xenopus oocvtes Xenopus laevis oocytes were prepared and injected using standard methods previously described and known in the art (Fraser et al., 1993). Ovarian lobes from adult female Xenopus laevis (Nasco, Fort Atkinson, Wis.) were teased apart, rinsed several times in nominally Ca-free saline containing (in mM): NaCl 82.5, KCl 2.5, MgCl2 1, HEPES 5, adjusted to pH 7.0 with NaOH(OR-2), and gently shaken in OR-2 containing 0.2% collagenase Type 1 (ICN Biomedicals, Aurora, Ohio) for 2–5 hours. When approximately 50% of the follicular layers were removed, Stage V and VI oocytes were selected and rinsed in media consisting of 75% OR-2 and 25% ND-96. The ND-96 contained (in mM): NaCl 100, KCl 2, MgCl2 1, CaCl2 1.8, HEPES 5, Na pyruvate 2.5, gentamicin (50 ug/ml), adjusted to pH 7.0 with NaOH. […] Whole cell agonist-induced currents were measured 1–14 days after injection with a conventional two-electrode voltage clamp (GeneClamp500, Axon Instruments, Foster City, Calif.) using standard methods previously described and known in the art (Dascal, 1987). […]

human 5-HT3-C = target: T6, human 5-HT3-C (Homo sapiens, UniProt Q8WXA8); assay: Two-electrode voltage clamp, Xenopus oocytes injected with 5-HT3-C cRNA alone; conditions: oocytes injected with 33.5 ng 5-HT3-C
T6 construct: Characterization of the Function of Protein Encoded by p5HT3CR in Xenopus oocvtes; expressed in transfected cells; host or cells: Xenopus laevis oocytes injected with in vitro transcribed cRNA (pGEM HE)
T6 sequence (Q8WXA8 28-447): T1 sequence (Q8WXA8 28-447)
Procedure: as §1

T4 sequence (P32297 32-505): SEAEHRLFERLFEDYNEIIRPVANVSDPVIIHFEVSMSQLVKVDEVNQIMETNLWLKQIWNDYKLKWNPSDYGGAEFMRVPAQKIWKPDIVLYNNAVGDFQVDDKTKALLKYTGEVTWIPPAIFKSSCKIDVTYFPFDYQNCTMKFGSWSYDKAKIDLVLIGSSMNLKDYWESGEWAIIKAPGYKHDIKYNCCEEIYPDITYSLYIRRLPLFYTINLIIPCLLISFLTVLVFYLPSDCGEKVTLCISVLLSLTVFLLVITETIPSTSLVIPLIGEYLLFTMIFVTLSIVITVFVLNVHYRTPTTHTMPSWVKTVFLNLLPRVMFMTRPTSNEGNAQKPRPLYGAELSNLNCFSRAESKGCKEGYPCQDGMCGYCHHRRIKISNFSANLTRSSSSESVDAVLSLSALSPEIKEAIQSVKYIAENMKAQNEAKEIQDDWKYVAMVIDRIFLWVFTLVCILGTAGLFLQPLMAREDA
T4 sequence (P30926 22-498): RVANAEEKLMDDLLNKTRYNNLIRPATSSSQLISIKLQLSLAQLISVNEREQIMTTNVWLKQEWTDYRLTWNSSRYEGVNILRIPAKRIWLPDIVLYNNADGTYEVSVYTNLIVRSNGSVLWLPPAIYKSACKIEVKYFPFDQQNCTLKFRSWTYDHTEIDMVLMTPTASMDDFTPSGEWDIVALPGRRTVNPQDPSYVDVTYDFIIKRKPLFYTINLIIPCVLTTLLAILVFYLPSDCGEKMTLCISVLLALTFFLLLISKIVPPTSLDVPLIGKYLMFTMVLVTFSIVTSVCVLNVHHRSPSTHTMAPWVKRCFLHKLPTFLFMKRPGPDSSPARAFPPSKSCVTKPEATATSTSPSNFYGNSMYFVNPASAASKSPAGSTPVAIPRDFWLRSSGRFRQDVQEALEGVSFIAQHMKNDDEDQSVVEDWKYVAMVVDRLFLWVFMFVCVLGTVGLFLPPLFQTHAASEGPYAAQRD
T3 sequence (Q15825 26-494, one chain of several): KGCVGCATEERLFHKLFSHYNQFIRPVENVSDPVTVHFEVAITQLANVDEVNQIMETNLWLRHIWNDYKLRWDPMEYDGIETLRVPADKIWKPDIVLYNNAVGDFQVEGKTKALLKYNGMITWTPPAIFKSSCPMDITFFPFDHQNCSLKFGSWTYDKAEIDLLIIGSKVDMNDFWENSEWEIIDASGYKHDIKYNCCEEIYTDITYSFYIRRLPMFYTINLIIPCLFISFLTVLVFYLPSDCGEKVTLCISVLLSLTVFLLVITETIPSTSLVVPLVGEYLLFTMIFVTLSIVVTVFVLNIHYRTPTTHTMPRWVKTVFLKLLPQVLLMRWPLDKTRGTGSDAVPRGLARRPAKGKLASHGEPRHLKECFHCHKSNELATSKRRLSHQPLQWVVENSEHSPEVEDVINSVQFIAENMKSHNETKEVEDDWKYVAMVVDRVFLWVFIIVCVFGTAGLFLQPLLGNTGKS
T2 sequence (P32297 32-505): as the sequence (P32297 32-505) above
T2 sequence (P30926 22-498): as the sequence (P30926 22-498) above

Compound | responsiveness of oocytes to agonist (5-HT3-B and 5-HT3-C) | Peak currents [1] | responsiveness of oocytes to agonist [2] | Peak currents [3] | effect of 5-HT3-C co-injection on epibatidine-activated currents [3] | effect of 5-HT3-C on t80, time to peak and degree of desensitization to a second epibatidine stimulus [3] | sensitivity of oocytes to agonist [4] | effect of agonist (agonist-induced current) (human 5-HT3-C; 100 μM) | effect of agonist (agonist-induced current) (human 5-HT3-C; 500 μM)
Clc1ccc(C2CC3CCC2N3)cn1 (stereo not drawn) [epibatidine] | unresponsive | −6.93+/−1.45 nA | not responsive | 6.49+/−0.69 nA | no effect | no effect |  |  | 
NC(N)=NC(N)=Nc1ccccc1 [1-PBG] |  |  |  |  |  |  | insensitive | no effect | no effect
